Assay results from PubChem BioAssay (NCI).
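Compound exposure: 48 hours, 5 concentrations, 96-well plates. At the GI50, growth is halved. TGI: total growth inhibition.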

Columns and labels:
Assay in all cases: DTP human tumour cell line panel, 48 h
786-0 renal = system: 786-0 renal
A498 renal = system: A498 renal
A549 NSCLC = system: A549 NSCLC
ACHN renal = system: ACHN renal
BT-549 breast = system: BT-549 breast
CAKI-1 renal = system: CAKI-1 renal
CCRF-CEM leukemia = system: CCRF-CEM leukemia
COLO 205 colon = system: COLO 205 colon
DU-145 prostate = system: DU-145 prostate
EKVX NSCLC = system: EKVX NSCLC
HCC-2998 colon = system: HCC-2998 colon
HCT-116 colon = system: HCT-116 colon
HCT-15 colon = system: HCT-15 colon
HL-60(TB) leukemia = system: HL-60(TB) leukemia
HOP-62 NSCLC = system: HOP-62 NSCLC
HOP-92 NSCLC = system: HOP-92 NSCLC
HS 578T breast = system: HS 578T breast
HT29 colon = system: HT29 colon
IGROV1 ovarian = system: IGROV1 ovarian
K-562 leukemia = system: K-562 leukemia
KM12 colon = system: KM12 colon
LOX IMVI melanoma = system: LOX IMVI melanoma
M14 melanoma = system: M14 melanoma
MALME-3M melanoma = system: MALME-3M melanoma
MCF7 breast = system: MCF7 breast
MDA-MB-231 breast = system: MDA-MB-231 breast
MDA-MB-435 = system: MDA-MB-435
MOLT-4 leukemia = system: MOLT-4 leukemia
NCI-H226 lung = system: NCI-H226 lung
NCI-H460 lung = system: NCI-H460 lung
NCI-H522 lung = system: NCI-H522 lung
NCI/ADR-RES ovarian = system: NCI/ADR-RES ovarian
OVCAR-3 ovarian = system: OVCAR-3 ovarian
OVCAR-4 ovarian = system: OVCAR-4 ovarian
OVCAR-5 ovarian = system: OVCAR-5 ovarian
OVCAR-8 ovarian = system: OVCAR-8 ovarian
PC-3 prostate = system: PC-3 prostate
RPMI-8226 leukemia = system: RPMI-8226 leukemia
RXF 393 renal = system: RXF 393 renal
SF-268 CNS = system: SF-268 CNS
SF-295 CNS = system: SF-295 CNS
SF-539 CNS = system: SF-539 CNS
SK-MEL-2 melanoma = system: SK-MEL-2 melanoma
SK-MEL-28 melanoma = system: SK-MEL-28 melanoma
SK-MEL-5 melanoma = system: SK-MEL-5 melanoma
SK-OV-3 ovarian = system: SK-OV-3 ovarian
SN12C renal = system: SN12C renal
SNB-19 CNS = system: SNB-19 CNS
SNB-75 CNS = system: SNB-75 CNS
SR leukemia = system: SR leukemia
SW-620 colon = system: SW-620 colon
T-47D breast = system: T-47D breast
TK-10 renal = system: TK-10 renal
U251 CNS = system: U251 CNS
UACC-257 melanoma = system: UACC-257 melanoma
UACC-62 melanoma = system: UACC-62 melanoma
UO-31 renal = system: UO-31 renal

## CCNC(=O)N1CCc2cc(OC)c(OCCc3ccc(OC)nc3)cc2C1c1ccc(C)cc1C (centres undefined)
786-0 renal
  GI50: 0.687 µM
  TGI: > 100 µM
A498 renal
  GI50: 1.39 µM
  TGI: 14.3 µM
A549 NSCLC
  GI50: 0.984 µM
  TGI: > 100 µM
ACHN renal
  GI50: 0.662 µM
  TGI: 91.1 µM
BT-549 breast
  GI50: 1.55 µM
  TGI: 7.45 µM
CAKI-1 renal
  GI50: 0.611 µM
  TGI: > 100 µM
CCRF-CEM leukemia
  GI50: 0.519 µM
  TGI: 55 µM
COLO 205 colon
  GI50: 0.792 µM
  TGI: 4.17 µM
DU-145 prostate
  GI50: 0.858 µM
  TGI: 24 µM
EKVX NSCLC
  GI50: 4.03 µM
  TGI: > 100 µM
HCC-2998 colon
  GI50: 1.56 µM
  TGI: 17.8 µM
HCT-116 colon
  GI50: 0.299 µM
  TGI: 20.7 µM
HCT-15 colon
  GI50: 0.156 µM
  TGI: > 60.2 µM
HL-60(TB) leukemia
  GI50: 0.651 µM
  TGI: 3.82 µM
HOP-62 NSCLC
  GI50: 1.35 µM
  TGI: > 37.5 µM
HOP-92 NSCLC
  GI50: 4.52 µM
  TGI: 27.4 µM
HS 578T breast
  GI50: 1.53 µM
  TGI: 10.6 µM
HT29 colon
  GI50: 0.573 µM
  TGI: 10.5 µM
IGROV1 ovarian
  GI50: 0.743 µM
  TGI: > 100 µM
K-562 leukemia
  GI50: 0.259 µM
  TGI: > 100 µM
KM12 colon
  GI50: 0.634 µM
  TGI: > 40.4 µM
LOX IMVI melanoma
  GI50: 0.308 µM
  TGI: 5.41 µM
M14 melanoma
  GI50: 0.722 µM
  TGI: 19.3 µM
MALME-3M melanoma
  GI50: 1.35 µM
  TGI: 50.2 µM
MCF7 breast
  GI50: 0.443 µM
  TGI: > 100 µM
MDA-MB-231 breast
  GI50: 1.14 µM
  TGI: 30.2 µM
MDA-MB-435
  GI50: 0.37 µM
  TGI: 5.89 µM
MOLT-4 leukemia
  GI50: 0.416 µM
  TGI: 35.5 µM
NCI-H226 lung
  GI50: 1.73 µM
  TGI: 11.4 µM
NCI-H460 lung
  GI50: 0.241 µM
  TGI: 6.36 µM
NCI-H522 lung
  GI50: 0.523 µM
  TGI: 2.72 µM
NCI/ADR-RES ovarian
  GI50: 0.659 µM
  TGI: 38.8 µM
OVCAR-3 ovarian
  GI50: 1.34 µM
  TGI: 24.3 µM
OVCAR-4 ovarian
  GI50: 3.3 µM
  TGI: > 100 µM
OVCAR-5 ovarian
  GI50: 2.02 µM
  TGI: > 100 µM
OVCAR-8 ovarian
  GI50: 0.675 µM
  TGI: > 43.1 µM
PC-3 prostate
  GI50: 0.719 µM
  TGI: > 71.8 µM
RPMI-8226 leukemia
  GI50: 0.531 µM
  TGI: 3.58 µM
RXF 393 renal
  GI50: 1.07 µM
  TGI: 15 µM
SF-268 CNS
  GI50: 0.927 µM
  TGI: 50.1 µM
SF-295 CNS
  GI50: 0.574 µM
  TGI: 8.8 µM
SF-539 CNS
  GI50: 0.501 µM
  TGI: 5.23 µM
SK-MEL-2 melanoma
  GI50: 3.33 µM
  TGI: 16.4 µM
SK-MEL-28 melanoma
  GI50: 0.873 µM
  TGI: 32.1 µM
SK-MEL-5 melanoma
  GI50: 0.839 µM
  TGI: 2.71 µM
SK-OV-3 ovarian
  GI50: 2.67 µM
  TGI: > 100 µM
SN12C renal
  GI50: 1.1 µM
  TGI: 15.4 µM
SNB-19 CNS
  GI50: 0.837 µM
  TGI: > 100 µM
SNB-75 CNS
  GI50: 0.667 µM
  TGI: > 23.5 µM
SR leukemia
  GI50: 0.207 µM
  TGI: 2.96 µM
SW-620 colon
  GI50: 0.466 µM
  TGI: > 100 µM
T-47D breast
  GI50: 2.68 µM
  TGI: 64.5 µM
TK-10 renal
  GI50: 5 µM
  TGI: > 100 µM
U251 CNS
  GI50: 0.636 µM
  TGI: 17.5 µM
UACC-257 melanoma
  GI50: 2.29 µM
  TGI: 50.5 µM
UACC-62 melanoma
  GI50: 0.43 µM
  TGI: 12.2 µM
UO-31 renal
  GI50: 0.929 µM
  TGI: > 100 µM
